# Results published in patent US20240368127A1, “HSD17B13 INHIBITORS AND USES THEREOF” (FL2022-001, Inc., priority 2021, published 2024).
# Molecular target: T1, Recombinant human HSD17B13 enzyme (Homo sapiens, UniProt Q7Z5P4)
# T1 sequence (Q7Z5P4 20-300): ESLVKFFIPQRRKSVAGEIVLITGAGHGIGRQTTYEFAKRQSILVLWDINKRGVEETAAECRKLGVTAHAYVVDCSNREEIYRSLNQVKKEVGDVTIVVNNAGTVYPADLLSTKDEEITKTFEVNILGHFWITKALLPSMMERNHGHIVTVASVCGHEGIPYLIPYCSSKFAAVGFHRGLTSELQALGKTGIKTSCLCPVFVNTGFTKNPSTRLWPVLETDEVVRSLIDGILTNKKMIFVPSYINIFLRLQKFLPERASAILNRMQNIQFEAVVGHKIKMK
# Test: HSD17b13 NAD(P)H-Glo biochemical assay
# Conditions: 50 μM estradiol, 1 mM NAD+, 37° C. for 3 hours; read-out: HSD17β13 IC50
# Procedure: Example B-1: HSD17b13 NAD (P) H-Glo Biochemical Assay
# Recombinant human HSD17B13 enzyme. Substrate: estradiol (Sigma β-Estradiol E8875), 100 mM in DMSO. Cofactor: NAD+ Grade I free acid (Sigma 10127965001), 20 mM in H2O. Assay buffer final concentration: 20 mM Tris pH7.4 with 0.002% Tween-20 and 0.02% BSA. Assay performed in 384 well solid bottom plate (Corning 3570). Enzymatic activity detected by NAD (P) H-Glo™ Detection System (Promega G9062).
# Inhibitor compounds were serially diluted in DMSO and then further diluted in assay buffer to a 10× concentration consisting of 1% DMSO.
# HSD17b13 enzyme was diluted in 1× assay buffer to the desired enzyme concentration based on the specific activity of the enzyme lot. 20 μL of diluted enzyme was added to each well along with 2.5 μL of 10× inhibitor solution. Assay plate was incubated at RT for 20 minutes, and then 2.5 μL of a 10× substrate/cofactor mix was added to each well for a final concentration of 50 μM estradiol and 1 mM NAD+. Assay plate was incubated at 37° C. for 3 hours. NAD (P) H-Glo™ Detection System reagents were prepared according to manufacturer's specifications, and 25 μL was added to each well. After incubating for 1 hour at RT, luminescence was measured.
row,Compound,IC50
1,"Cn1nc(-c2cc(C(F)(F)F)c(F)c(O)c2F)c2cnc(N3CCC(O)(Cn4cccn4)CC3)nc21 [Compound 5.04, 4-((1H-Pyrazol-1-yl)methyl)-1-(3-(2,4-difluoro-3-hydroxy-5-(trifluoromethyl)phenyl)-1-methyl-1H-pyrazolo[3,4-d]pyrimidin-6-yl)piperidin-4-ol]",≤ 100 nM
2,"Cn1nc(-c2cc(C(F)(F)F)c(F)c(O)c2F)c2cnc(N3CCC(O)(CN4CCOCC4)CC3)nc21 [Compound 5.05, 1-(3-(2,4-Difluoro-3-hydroxy-5-(trifluoromethyl)phenyl)-1-methyl-1H-pyrazolo[3,4-d]pyrimidin-6-yl)-4-(morpholinomethyl)piperidin-4-ol]",100 to 1000 nM
3,"Cn1nc(-c2cc(C(F)(F)F)c(F)c(O)c2F)c2cnc(N3CCOCC3CC3CCC3)nc21 (centres unmarked) [Compound 5.10, 3-(6-(3-(Cyclobutylmethyl)morpholino)-1-methyl-1H-pyrazolo[3,4-d]pyrimidin-3-yl)-2,6-difluoro-5-(trifluoromethyl)phenol]",≤ 100 nM
4,"Cn1nc(-c2cc(C(F)(F)F)c(F)c(O)c2F)c2cnc(N3CCCCC3Cc3ccccn3)nc21 (centres unmarked) [Compound 5.11, 2,6-Difluoro-3-(1-methyl-6-(2-(pyridin-2-ylmethyl)piperidin-1-yl)-1H-pyrazolo[3,4-d]pyrimidin-3-yl)-5-(trifluoromethyl)phenol]",≤ 100 nM
5,"CS(=O)(=O)N1CCN(c2ncc3c(-c4cc(C(F)(F)F)c(F)c(O)c4F)n[nH]c3n2)[C@H](Cc2ccccc2)C1 [Compound 5.18, (R)-3-(6-(2-Benzyl-4-(methylsulfonyl)piperazin-1-yl)-1H-pyrazolo[3,4-d]pyrimidin-3-yl)-2,6-difluoro-5-(trifluoromethyl)phenol]",≤ 100 nM
6,"Oc1c(F)c(-c2n[nH]c3nc(N4CCOC[C@H]4Cc4ccccc4)ncc23)cc(C(F)(F)F)c1F [Compound 5.20, (R)-3-(6-(3-Benzylmorpholino)-1H-pyrazolo[3,4-d]pyrimidin-3-yl)-2,6-difluoro-5-(trifluoromethyl)phenol]",≤ 100 nM
7,"Cc1ccc(C[C@@H]2COCCN2c2ncc3c(-c4cc(C(F)(F)F)c(F)c(O)c4F)nn(C)c3n2)cc1 [Compound 5.21, (R)-2,6-Difluoro-3-(1-methyl-6-(3-(4-methylbenzyl)morpholino)-1H-pyrazolo[3,4-d]pyrimidin-3-yl)-5-(trifluoromethyl)phenol]",≤ 100 nM
8,"CS(=O)(=O)N1CCN(c2ncc3c(-c4cc(C(F)(F)F)c(F)c(O)c4F)n[nH]c3n2)C[C@@H]1Cc1ccccc1 [Compound 5.22, (S)-3-(6-(3-Benzyl-4-(methylsulfonyl)piperazin-1-yl)-1H-pyrazolo[3,4-d]pyrimidin-3-yl)-2,6-difluoro-5-(trifluoromethyl)phenol]",≤ 100 nM
9,"Cn1nc(-c2cc(C(F)(F)F)c(F)c(O)c2F)c2cnc(N3CCOC[C@H]3Cc3ccc(F)cc3)nc21 [Compound 5.23, (R)-2,6-Difluoro-3-(6-(3-(4-fluorobenzyl)morpholino)-1-methyl-1H-pyrazolo[3,4-d]pyrimidin-3-yl)-5-(trifluoromethyl)phenol]",≤ 100 nM
10,"Cn1nc(-c2cc(C(F)(F)F)c(F)c(O)c2F)c2cnc(N3CCOC[C@H]3Cc3cccc(F)c3)nc21 [Compound 5.24, (R)-2,6-Difluoro-3-(6-(3-(3-fluorobenzyl)morpholino)-1-methyl-1H-pyrazolo[3,4-d]pyrimidin-3-yl)-5-(trifluoromethyl)phenol]",≤ 100 nM
11,"Cn1nc(-c2cc(C(F)(F)F)c(F)c(O)c2F)c2cnc(N3CCOC[C@H]3Cc3ccccc3F)nc21 [Compound 5.25, (R)-2,6-Difluoro-3-(6-(3-(2-fluorobenzyl)morpholino)-1-methyl-1H-pyrazolo[3,4-d]pyrimidin-3-yl)-5-(trifluoromethyl)phenol]",≤ 100 nM
12,"Cn1nc(-c2cc(C(F)(F)F)c(F)c(O)c2F)c2cnc(NC3(Cc4ccccc4)CCC3)nc21 [Compound 5.27, 3-(6-((1-Benzylcyclobutyl)amino)-1-methyl-1H-pyrazolo[3,4-d]pyrimidin-3-yl)-2,6-difluoro-5-(trifluoromethyl)phenol]",≤ 100 nM
13,"COc1ccc(C[C@@H]2COCCN2c2ncc3c(-c4cc(C(F)(F)F)c(F)c(O)c4F)nn(C)c3n2)cc1 [Compound 5.28, (R)-2,6-Difluoro-3-(6-(3-(4-methoxybenzyl)morpholino)-1-methyl-1H-pyrazolo[3,4-d]pyrimidin-3-yl)-5-(trifluoromethyl)phenol]",≤ 100 nM
14,"Cn1nc(-c2cc(C(F)(F)F)c(F)c(O)c2F)c2cnc(N3CCOCC3CN3CCCC3)nc21 (centres unmarked) [Compound 5.29, 2,6-Difluoro-3-(1-methyl-6-(3-(pyrrolidin-1-ylmethyl)morpholino)-1H-pyrazolo[3,4-d]pyrimidin-3-yl)-5-(trifluoromethyl)phenol]",100 to 1000 nM

# The next lines start with the values.
row,IC50,Compound
1,≤ 100 nM,"Cn1nc(-c2cc(C(F)(F)F)c(F)c(O)c2F)c2cnc(N3CCN(S(C)(=O)=O)C[C@@H]3Cc3ccccc3)nc21 [Compound 5.06, (S)-3-(6-(2-Benzyl-4-(methylsulfonyl)piperazin-1-yl)-1-methyl-1H-pyrazolo[3,4-d]pyrimidin-3-yl)-2,6-difluoro-5-(trifluoromethyl)phenol]"
2,≤ 100 nM,"CN1CCN(c2ncc3c(-c4cc(C(F)(F)F)c(F)c(O)c4F)nn(C)c3n2)CC1Cc1ccccc1 (centres unmarked) [Compound 5.07, 3-(6-(3-Benzyl-4-methylpiperazin-1-yl)-1-methyl-1H-pyrazolo[3,4-d]pyrimidin-3-yl)-2,6-difluoro-5-(trifluoromethyl)phenol]"
3,≤ 100 nM,"Cn1nc(-c2cc(C(F)(F)F)c(F)c(O)c2F)c2cnc(N3CCOC[C@H]3Cc3ccccc3)nc21 [Compound 5.08, (R)-3-(6-(3-Benzylmorpholino)-1-methyl-1H-pyrazolo[3,4-d]pyrimidin-3-yl)-2,6-difluoro-5-(trifluoromethyl)phenol]"
4,≤ 100 nM,"Cn1nc(-c2cc(C(F)(F)F)c(F)c(O)c2F)c2cnc(N3CCOC[C@@H]3Cc3ccccc3)nc21 [Compound 5.09, (S)-3-(6-(3-Benzylmorpholino)-1-methyl-1H-pyrazolo[3,4-d]pyrimidin-3-yl)-2,6-difluoro-5-(trifluoromethyl)phenol]"
5,≤ 100 nM,"CN1CCN(c2ncc3c(-c4cc(C(F)(F)F)c(F)c(O)c4F)nn(C)c3n2)C(Cc2ccccc2)C1 (centres unmarked) [Compound 5.12, 3-(6-(2-Benzyl-4-methylpiperazin-1-yl)-1-methyl-1H-pyrazolo[3,4-d]pyrimidin-3-yl)-2,6-difluoro-5-(trifluoromethyl)phenol]"
6,≤ 100 nM,"Cn1nc(-c2cc(C(F)(F)F)c(F)c(O)c2F)c2cnc(N3CCNC(=O)C3Cc3ccccc3)nc21 (centres unmarked) [Compound 5.13, 3-Benzyl-4-(3-(2,4-difluoro-3-hydroxy-5-(trifluoromethyl)phenyl)-1-methyl-1H-pyrazolo[3,4-d]pyrimidin-6-yl)piperazin-2-one]"
7,≤ 100 nM,"Cn1nc(-c2cc(C(F)(F)F)c(F)c(O)c2F)c2cnc(N3CCN(S(C)(=O)=O)[C@@H](Cc4ccccc4)C3)nc21 [Compound 5.14, (S)-3-(6-(3-Benzyl-4-(methylsulfonyl)piperazin-1-yl)-1-methyl-1H-pyrazolo[3,4-d]pyrimidin-3-yl)-2,6-difluoro-5-(trifluoromethyl)phenol]"
8,≤ 100 nM,"Cn1nc(-c2cc(C(F)(F)F)c(F)c(O)c2F)c2cnc(N3CCN(S(C)(=O)=O)[C@H](Cc4ccccc4)C3)nc21 [Compound 5.15, (R)-3-(6-(3-Benzyl-4-(methylsulfonyl)piperazin-1-yl)-1-methyl-1H-pyrazolo[3,4-d]pyrimidin-3-yl)-2,6-difluoro-5-(trifluoromethyl)phenol]"
9,≤ 100 nM,"Cn1nc(-c2cc(C(F)(F)F)c(F)c(O)c2F)c2cnc(N3CCCC[C@H]3Cc3ccccc3)nc21 [Compound 5.16, (S)-3-(6-(2-Benzylpiperidin-1-yl)-1-methyl-1H-pyrazolo[3,4-d]pyrimidin-3-yl)-2,6-difluoro-5-(trifluoromethyl)phenol]"
10,≤ 100 nM,"Cn1nc(-c2cc(C(F)(F)F)c(F)c(O)c2F)c2cnc(N3CCC[C@H]3Cc3ccccc3)nc21 [Compound 5.17, (S)-3-(6-(2-Benzylpyrrolidin-1-yl)-1-methyl-1H-pyrazolo[3,4-d]pyrimidin-3-yl)-2,6-difluoro-5-(trifluoromethyl)phenol]"
11,≤ 100 nM,"Cn1nc(-c2cc(C(F)(F)F)c(F)c(O)c2F)c2cnc(N3CCC3Cc3ccccc3)nc21 (centres unmarked) [Compound 5.19, 3-(6-(2-Benzylazetidin-1-yl)-1-methyl-1H-pyrazolo[3,4-d]pyrimidin-3-yl)-2,6-difluoro-5-(trifluoromethyl)phenol]"
12,≤ 100 nM,"CN1CCN(c2ncc3c(-c4cc(C(F)(F)F)c(F)c(O)c4F)nn(C)c3n2)[C@H](Cc2ccccc2)C1 [Compound 5.26, (R)-3-(6-(2-Benzyl-4-methylpiperazin-1-yl)-1-methyl-1H-pyrazolo[3,4-d]pyrimidin-3-yl)-2,6-difluoro-5-(trifluoromethyl)phenol]"
